# Test results published in BindingDB's records for doi:10.7270/Q26T0K34 (The Scripps Research Institute Molecular Screening Center, 2010).
# pIC50: −log10 of the molar value.
# Molecular target: Peroxisome proliferator-activated receptor gamma (Homo sapiens, UniProt P37231)
# Assay: PubChem AID 463257
# Chain of Peroxisome proliferator-activated receptor gamma (P37231 whole entry, looked up): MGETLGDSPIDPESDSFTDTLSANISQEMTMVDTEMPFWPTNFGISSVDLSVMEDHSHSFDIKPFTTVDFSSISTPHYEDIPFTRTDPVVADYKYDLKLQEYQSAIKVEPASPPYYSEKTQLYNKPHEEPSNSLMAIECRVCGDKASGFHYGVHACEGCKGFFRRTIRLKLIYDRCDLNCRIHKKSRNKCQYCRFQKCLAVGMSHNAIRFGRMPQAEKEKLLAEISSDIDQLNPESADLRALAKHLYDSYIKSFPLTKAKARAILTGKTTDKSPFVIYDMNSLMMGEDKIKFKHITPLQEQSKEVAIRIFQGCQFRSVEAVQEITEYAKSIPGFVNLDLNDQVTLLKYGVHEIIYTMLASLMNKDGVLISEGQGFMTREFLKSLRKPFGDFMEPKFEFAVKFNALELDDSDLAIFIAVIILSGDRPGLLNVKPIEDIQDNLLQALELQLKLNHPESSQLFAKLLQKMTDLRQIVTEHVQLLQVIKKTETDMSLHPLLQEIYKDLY
smiles,measurement,value
"COc1ccc(-n2cc(O)c(-c3nc(-c4ccccc4)cs3)c2N)cc1 [5-amino-1-(4-methoxyphenyl)-4-(4-phenyl-1,3-thiazol-2-yl)-2H-pyrrol-3-one]",pIC50,4.61
